What all share (assay type): physicochemical
Data set [1] is described as follows: Dynamic vapor sorption (DVS) experiment. The settings on record: for Adsorption weight gain (80% RH) / Adsorption weight gain (95% RH): DVS; for Hygroscopicity: class per Chinese Pharmacopoeia 2010 guidance (25±0.2°C, 80% relative humidity).
Data set [2] can be described thus: Influencing factor stability: light exposure test. The following applies: Visible light 4500 Lux ± 500 Lux; for Crystal form: ultraviolet light 1.7 W*h/m^2 (25°C, RH 60%±5%), XRPD; for Purity: HPLC, starting purity: Crystal form VI 99.32%, Amorphous form 98.80%, Crystal form XIII 99.01%. On the procedure:
(§1) The crystal form results under different conditions were identified by XRPD analysis, and the purity results under different conditions were identified by HPLC analysis.
(§2) The above samples were then taken on days 5, 10, 15, and 30, respectively. Their crystal forms were tested by adopting X-ray powder diffraction (XRPD), and the sample purities were tested by adopting HPLC. […]

A short description of data set [3]: Influencing factor stability: high-humidity test. The following applies: Temperature 25°C, relative humidity 92.5±5%; for Purity: HPLC, starting purity: Crystal form VI 99.32%, Amorphous form 98.80%, Crystal form XIII 99.01%; for Crystal form: XRPD. The procedure: as §1, §2
The nature of data set [4]: Influencing factor stability: high-temperature test. The settings on record: Temperature 60°C; for Purity: HPLC, starting purity: Crystal form VI 99.32%, Amorphous form 98.80%, Crystal form XIII 99.01%; for Crystal form: XRPD. On the procedure: as §1, §2
A short description of data set [5]: Stability test in pure water and buffer solution (suspension, XRPD). The settings on record: 25°C, stirred 24 h, solid by XRPD. On the procedure:
The suspensions were stirred at 25°C for 24 h, and filtered to obtain the solids. Samples were taken for XRPD measurement. […]

Data set [6] is described as follows: Morphological comparison under polarizing light microscope. The following applies: for dispersibility and flowability / agglomeration and caking: judged from polarizing light microscope images; for crystal morphology: polarizing light microscope.
[7] abbreviates: ultraviolet light 1.7 W*h/m^2, 5 days.
[8] abbreviates: ultraviolet light 1.7 W*h/m^2, 10 days.
The mark [9] stands for this setting: ultraviolet light 1.7 W*h/m^2, 15 days.
[10] abbreviates: ultraviolet light 1.7 W*h/m^2, 30 days.

As to `C=CC(=O)Nc1cc(Nc2nc(-c3ccnc(N4CCn5c(cc6c5CC(C)(C)C6)C4=O)c3CO)cn(C)c2=O)ccc1N1CCN(C2CCOCC2)C[C@@H]1C` [Amorphous form, (S)-N-(5-((6-(2-(7,7-dimethyl-1-oxo-1,3,4,6,7,8-hexahydro-2H-cyclopenta[4,5]pyrrolo[1,2-a]pyrazin-2-yl)-3-(hydroxymethyl)pyridin-4-yl)-4-methyl-3-oxo-3,4-dihydropyrazin-2-yl)amino)-2-(2-methyl-4-(tetrahydro-2H-pyran-4-yl)piperazin-1-yl)phenyl)acrylamide], the “Adsorption weight gain (80% RH)” value is given as 4.55% in data set [1] and “about 4.55%” in data set [1] (listed as amorphous form). For the same compound, the “Adsorption weight gain (95% RH)” value in data set [1] is recorded as 6.76%; in data set [1] (listed as amorphous form) it was “about 6.76%”. Besides, the Hygroscopicity entry in data set [1] is given as “Hygroscopic (hygroscopic weight gain is less than 15% but not less than 2%)”; in data set [1] (listed as amorphous form), “hygroscopic”. Further, the Crystal form result in data set [2] (5 days), in data set [2] (10 days), in data set [2] (15 days), in data set [2] (30 days), in data set [3] (5 days) and in data set [3] (10 days) was “Amorphous form” in each case. The Crystal form entry in data set [3] (15 days), in data set [3] (30 days), in data set [4] (5 days), in data set [4] (10 days), in data set [4] (15 days) and in data set [4] (30 days) was “Amorphous form” throughout. Besides, the Purity in data set [2] (setting [7]) is 98.46%; in data set [2] (setting [8]) it was 97.98%; in data set [2] (setting [9]), 97.29%; in data set [2] (setting [10]), 96.55%; in data set [3] (5 days) it was 98.72%; in data set [3] (10 days), 98.50%. The Purity in data set [3] (15 days) was 98.38%; in data set [3] (30 days) it was 98.21%; in data set [4] (5 days), 98.61%; in data set [4] (10 days) it was 98.44%; in data set [4] (15 days), 98.39%; in data set [4] (30 days), 97.88%. Besides, the Suspension result in data set [5] (Pure water), in data set [5] (pH 4.5 buffer solution) and in data set [5] (pH 6.8 buffer solution) was “Transform into other crystal forms” each time. Also, in data set [6], the “dispersibility and flowability / agglomeration and caking” value was “significant agglomeration and caking”. For the same compound, the crystal morphology entry in data set [6] is on record as “irregular glassy state”.

Turning to `C=CC(=O)Nc1cc(Nc2nc(-c3ccnc(N4CCn5c(cc6c5CC(C)(C)C6)C4=O)c3CO)cn(C)c2=O)ccc1N1CCN(C2CCOCC2)C[C@@H]1C` [Crystal form V, (S)-N-(5-((6-(2-(7,7-dimethyl-1-oxo-1,3,4,6,7,8-hexahydro-2H-cyclopenta[4,5]pyrrolo[1,2-a]pyrazin-2-yl)-3-(hydroxymethyl)pyridin-4-yl)-4-methyl-3-oxo-3,4-dihydropyrazin-2-yl)amino)-2-(2-methyl-4-(tetrahydro-2H-pyran-4-yl)piperazin-1-yl)phenyl)acrylamide], the Suspension result in data set [5] (pH 4.5 buffer solution) and in data set [5] (pH 6.8 buffer solution) was “Transform into other crystal forms” throughout.

As to `C=CC(=O)Nc1cc(Nc2nc(-c3ccnc(N4CCn5c(cc6c5CC(C)(C)C6)C4=O)c3CO)cn(C)c2=O)ccc1N1CCN(C2CCOCC2)C[C@@H]1C` [Crystal form XIII, (S)-N-(5-((6-(2-(7,7-dimethyl-1-oxo-1,3,4,6,7,8-hexahydro-2H-cyclopenta[4,5]pyrrolo[1,2-a]pyrazin-2-yl)-3-(hydroxymethyl)pyridin-4-yl)-4-methyl-3-oxo-3,4-dihydropyrazin-2-yl)amino)-2-(2-methyl-4-(tetrahydro-2H-pyran-4-yl)piperazin-1-yl)phenyl)acrylamide], the figures for the “Adsorption weight gain (80% RH)” value in data set [1] and in data set [1] (listed as crystal form XIII) were 6.53% and “about 6.53%”, respectively. The “Adsorption weight gain (95% RH)” value in data set [1] is listed as 14.45%; in data set [1] (listed as crystal form XIII), “about 14.45%”. Further, the Hygroscopicity result in data set [1] was “Hygroscopic (hygroscopic weight gain is less than 15% but not less than 2%)”; in data set [1] (listed as crystal form XIII), “hygroscopic”. Besides, the Crystal form entry in data set [2] (5 days), in data set [2] (10 days), in data set [2] (15 days), in data set [2] (30 days), in data set [3] (5 days) and in data set [3] (10 days) was “Crystal form XIII” in each case. For the same compound, the Crystal form result is on record as “Crystal form XIII” in data set [3] (15 days); “Crystal form XIII” in data set [3] (30 days); “Transform into other crystal forms” in data set [4] (5 days); “Transform into other crystal forms” in data set [4] (10 days); “Transform into other crystal forms” in data set [4] (15 days); “Transform into other crystal forms” in data set [4] (30 days). The Purity is given as 98.65% in data set [2] (setting [7]); 98.32% in data set [2] (setting [8]); 97.76% in data set [2] (setting [9]); 97.15% in data set [2] (setting [10]); 98.92% in data set [3] (5 days); 98.86% in data set [3] (10 days). The Purity in data set [3] (15 days) amounted to 98.81%; in data set [3] (30 days), 98.77%; in data set [4] (5 days), 98.79%; in data set [4] (10 days), 98.54%; in data set [4] (15 days) it was 98.20%; in data set [4] (30 days), 97.85%. Moreover, the Suspension result in data set [5] (Pure water), in data set [5] (pH 4.5 buffer solution) and in data set [5] (pH 6.8 buffer solution) was “Transform into other crystal forms” throughout. The “dispersibility and flowability / agglomeration and caking” value in data set [6] is recorded as “relatively poor flowability”. In addition, in data set [6], the crystal morphology result is “fine”.

These data come from patent EP4759812A1 (Guangzhou Lupeng Pharmaceutical Co., Ltd., priority 2023, dated 2025).
